Test results from US10766878B2, “Sulfonylcycloalkyl carboxamide compounds” (Genentech, Inc., priority 2017, dated 2020).

Target: human TRPA1 (Homo sapiens (Human), UniProt O75762)
Experiment: hTRPA1 CHO Ca2+ AUC EVO (IC50); FLIPR Tetra block of cinnamaldehyde induced calcium influx
Format: cell-based
Settings: CHO cells expressing TRPA1, 75 uM cinnamaldehyde agonist
Method: IC50 values ([…]) of compounds on the human and rat TRPA1 channels were determined using a FLIPR Tetra instrument. CHO cells expressing TRPA1 were plated into 384-well plates, incubated overnight at 37 C, and loaded with BD calcium indicator dye for 1 hr at 37° C. followed by 15 minutes. at room temperature. The assay buffer was Hank's Balanced Salt Solution (HBSS) containing 20 mM HEPES (pH readjusted to 7.4) along with 0.02% BSA.
Following dye load and plate cool down, compounds were added to the cells using FLIPR Tetra. Plates were then incubated with compounds for 20 minutes at room temperature prior to adding agonist. Following this incubation, ˜EC80 concentration of cinnamaldehyde (75 uM for human TRPA1 and 45 uM for rat TRPA1) was added to active the channels and block of cinnamaldehyde induced calcium influx was measured.
IC50 values were fit with a standard Hill function, keeping the Hill coefficient (n) fixed to 1.5. Fixing the Hill coefficient will generally reduce variability of the IC50 determination. The IC50 values were individually examined to make sure the MIN and MAX points were set correctly prior to validation of the results.

human TRPA1, sequence (O75762 whole entry): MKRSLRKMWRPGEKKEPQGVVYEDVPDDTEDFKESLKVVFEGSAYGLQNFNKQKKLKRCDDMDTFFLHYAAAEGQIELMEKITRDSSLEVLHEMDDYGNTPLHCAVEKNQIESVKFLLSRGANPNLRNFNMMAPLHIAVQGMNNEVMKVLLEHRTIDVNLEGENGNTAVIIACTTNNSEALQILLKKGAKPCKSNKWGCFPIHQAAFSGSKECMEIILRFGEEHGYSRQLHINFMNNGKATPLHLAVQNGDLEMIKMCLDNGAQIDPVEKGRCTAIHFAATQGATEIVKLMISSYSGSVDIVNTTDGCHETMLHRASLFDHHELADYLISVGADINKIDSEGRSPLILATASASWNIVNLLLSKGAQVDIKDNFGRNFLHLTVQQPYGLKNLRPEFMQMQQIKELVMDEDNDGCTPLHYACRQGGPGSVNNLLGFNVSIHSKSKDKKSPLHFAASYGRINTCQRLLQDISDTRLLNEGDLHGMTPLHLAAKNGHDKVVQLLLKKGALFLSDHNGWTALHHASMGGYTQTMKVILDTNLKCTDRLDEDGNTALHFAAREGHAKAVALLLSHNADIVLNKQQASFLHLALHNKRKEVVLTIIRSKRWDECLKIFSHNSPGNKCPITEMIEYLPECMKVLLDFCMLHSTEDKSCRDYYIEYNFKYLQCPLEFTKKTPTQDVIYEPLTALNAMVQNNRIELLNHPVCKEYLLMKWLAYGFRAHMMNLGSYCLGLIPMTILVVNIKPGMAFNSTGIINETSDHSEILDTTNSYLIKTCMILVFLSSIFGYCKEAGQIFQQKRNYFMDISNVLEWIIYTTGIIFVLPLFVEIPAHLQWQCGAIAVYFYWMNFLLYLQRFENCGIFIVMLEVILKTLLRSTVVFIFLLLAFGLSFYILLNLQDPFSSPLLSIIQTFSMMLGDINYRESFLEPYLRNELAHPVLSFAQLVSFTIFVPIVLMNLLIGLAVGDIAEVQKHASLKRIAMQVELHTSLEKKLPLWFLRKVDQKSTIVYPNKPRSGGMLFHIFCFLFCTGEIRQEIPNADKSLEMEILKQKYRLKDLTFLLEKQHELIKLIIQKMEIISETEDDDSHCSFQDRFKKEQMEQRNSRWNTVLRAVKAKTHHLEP

SMILES | IC50 (Table 1) [nM] | IC50 (Table 3) [nM]
COc1nn(-c2ccc(C(F)(F)F)cc2)cc1CNC(=O)C1CCC1(C)S(=O)(=O)c1ccc(F)cc1 (single isomer, unassigned; enantiomer 1) [Example 22, 2-(4-fluorophenylsulfonyl)-N-(3-methoxy-1-(4-(trifluoromethyl)phenyl)-1H-pyrazol-4-yl)methyl)-2-methylcyclobutanecarboxamide (Enantiomer 1)] |  | 71.7
COc1nn(-c2ccc(C(F)(F)F)nc2)cc1CNC(=O)C1(C)CCCC1S(=O)(=O)c1ccc(F)cc1 (single isomer, unassigned; enantiomer 1) [Example 34, 2-(4-fluorophenylsulfonyl)-N-((3-methoxy-1-(6-(trifluoromethyl)pyridin-3-yl)-1H-pyrazol-4-yl)methyl)-1-methylcyclopentanecarboxamide (Enantiomer 1)] | 33.1 | 33.1
COc1nn(-c2ccc(C(F)(F)F)nc2)cc1CC(=O)NC1CCC1S(=O)(=O)c1ccc(F)cc1 (single isomer, unassigned; enantiomer 2) [Example 12, N-(2-((4-fluorophenyl)sulfonyl)cyclobutyl)-2-(3-methoxy-1-(6-(trifluoromethyl)pyridin-3-yl)-1H-pyrazol-4-yl)acetamide (Enantiomer 2)] |  | 213
O=C(NCc1cn(-c2ccc(C(F)(F)F)cc2)nc1C(F)F)C1CCC1S(=O)(=O)c1ccc(F)cc1 (single isomer, unassigned; enantiomer 2) [Example 18, N-((3-(difluoromethyl)-1-(4-(trifluoromethyl)phenyl)-1H-pyrazol-4-yl)methyl)-2-(4-fluorophenylsulfonyl) cyclobutanecarboxamide (Enantiomer 2)] |  | 96
COc1nn(-c2ccc(C(F)(F)F)cc2)cc1CNC(=O)C1CCC1(C)S(=O)(=O)c1ccc(F)cc1 (single isomer, unassigned; enantiomer 2) [Example 23, 2-(4-fluorophenylsulfonyl)-N-((3-methoxy-1-(4-(trifluoromethyl)phenyl)-1H-pyrazol-4-yl)methyl)-2-methylcyclobutanecarboxamide (Enantiomer 2)] | 38 | 38
O=C(NCc1cn(-c2ccc(C(F)(F)F)cc2)nc1Cl)C1CCC1S(=O)(=O)c1ccc(F)cc1 (single isomer, unassigned; enantiomer 2) [Example 29, N-((3-chloro-1-(4-(trifluoromethyl)phenyl)-1H-pyrazol-4-yl)methyl)-2-(4-fluorophenylsulfonyl) cyclobutanecarboxamide (Enantiomer 2)] |  | 65.8
COc1nn(-c2ccc(C(F)(F)F)nc2)cc1CNC(=O)C1(C)CCCC1S(=O)(=O)c1ccc(F)cc1 (single isomer, unassigned; enantiomer 2) [Example 35, 2-(4-fluorophenylsulfonyl)-N-((3-methoxy-1-(6-(trifluoromethyl)pyridin-3-yl)-1H-pyrazol-4-yl)methyl)-1-methylcyclopentanecarboxamide (Enantiomer 2)] |  | 199
O=C(NCc1cn(-c2ccc(C(F)(F)F)nc2)nc1C(F)(F)F)C1CCC1S(=O)(=O)c1ccc(F)cc1 (single isomer, unassigned; enantiomer 3) [Example 26, 2-(4-fluorophenylsulfonyl)-N-((3-(trifluoromethyl)-1-(6-(trifluoromethyl)pyridin-3-yl)-1H-pyrazol-4-yl)methyl) cyclobutanecarboxamide (Enantiomer 3)] |  | 90.2
O=C(NCc1cn(-c2ccc(C(F)(F)F)cc2)nc1Cl)C1CCC1S(=O)(=O)c1ccc(F)cc1 (single isomer, unassigned; enantiomer 3) [Example 30, N-((3-chloro-1-(4-(trifluoromethyl)phenyl)-1H-pyrazol-4-yl)methyl)-2-(4-fluorophenylsulfonyl) cyclobutanecarboxamide (Enantiomer 3)] |  | 56.7
CC1(C(=O)NCc2cn(-c3ccc(C(F)(F)F)nc3)nc2Cl)CCCC1S(=O)(=O)c1ccc(F)cc1 (single isomer, unassigned; enantiomer 3) [Example 33, N-((3-chloro-1-(6-(trifluoromethyl)pyridin-3-yl)-1H-pyrazol-4-yl)methyl)-2-(4-fluorophenylsulfonyl)-1-methylcyclopentanecarboxamide (Enantiomer 3)] |  | 88.5

The remaining compounds from weak to strong by IC50 (Table 3), led by results:

IC50 (Table 1) [nM] | IC50 (Table 3) [nM] | SMILES
 | 500 | O=C(Cc1cn(-c2cnc(C(F)(F)F)nc2)nc1C(F)(F)F)N[C@@H]1CC[C@@H]1[S+]([O-])c1ccc(F)cc1 (stereo partly drawn) [Example 2, N-((1R,2S)-2-(4-fluorophenylsulfinyl)cyclobutyl)-2-(3-(trifluoromethyl)-1-(2-(trifluoromethyl)pyrimidin-5-yl)-1H-pyrazol-4-yl)acetamide]
 | 218 | COc1nn(-c2ccc(C(F)(F)F)nc2)cc1CNC(=O)C1CCCC1S(=O)(=O)c1ccc(F)cc1 (single isomer, unassigned; enantiomer 2) [Example 39, 2-(4-fluorophenylsulfonyl)-N-((3-methoxy-1-(6-(trifluoromethyl)pyridin-3-yl)-1H-pyrazol-4-yl)methyl) cyclopentanecarboxamide (Enantiomer 2)]
 | 192 | O=C(NCc1cn(-c2ccc(C(F)(F)F)nc2)nc1C(F)(F)F)C1CCC1S(=O)(=O)c1ccc(F)cc1 (single isomer, unassigned; enantiomer 2) [Example 25, 2-(4-fluorophenylsulfonyl)-N-((3-(trifluoromethyl)-1-(6-(trifluoromethyl)pyridin-3-yl)-1H-pyrazol-4-yl)methyl) cyclobutanecarboxamide (Enantiomer 2)]
 | 85.7 | CC1(C(=O)NCc2cn(-c3ccc(C(F)(F)F)nc3)nc2Cl)CCCC1S(=O)(=O)c1ccc(F)cc1 (single isomer, unassigned; enantiomer 2) [Example 32, N-((3-chloro-1-(6-(trifluoromethyl)pyridin-3-yl)-1H-pyrazol-4-yl)methyl)-2-(4-fluorophenylsulfonyl)-1-methylcyclopentanecarboxamide (Enantiomer 2)]
 | 62.2 | COc1nn(-c2ccc(C(F)(F)F)nc2)cc1CNC(=O)C1(C)CCCC1S(=O)(=O)c1ccc(F)cc1 (single isomer, unassigned; enantiomer 3) [Example 36, 2-(4-fluorophenylsulfonyl)-N-((3-methoxy-1-(6-(trifluoromethyl)pyridin-3-yl)-1H-pyrazol-4-yl)methyl)-1-methylcyclopentanecarboxamide (Enantiomer 3)]
47.1 | 47.1 | CC1(C(=O)NCc2cn(-c3ccc(C(F)(F)F)cc3)nc2Cl)CCCC1S(=O)(=O)c1ccc(F)cc1 (single isomer, unassigned; enantiomer 3) [Example 38, N-((3-chloro-1-(4-(trifluoromethyl)phenyl)-1H-pyrazol-4-yl)methyl)-2-(4-fluorophenylsulfonyl)-1-methylcyclopentanecarboxamide (Enantiomer 3)]
45.5 | 45.5 | O=C(NCc1cn(-c2ccc(C(F)(F)F)cc2)nc1Cl)C1CCCC1S(=O)(=O)c1ccc(F)cc1 (single isomer, unassigned; enantiomer 2) [Example 42, N-((3-chloro-1-(4-(trifluoromethyl)phenyl)-1H-pyrazol-4-yl)methyl)-2-(4-fluorophenylsulfonyl) cyclopentanecarboxamide (Enantiomer 2)]
39.2 | 39.2 | CC1(C(=O)NCc2cn(-c3ccc(C(F)(F)F)nc3)nc2Cl)CCCC1S(=O)(=O)c1ccc(F)cc1 (single isomer, unassigned; enantiomer 1) [Example 31, N-((3-chloro-1-(6-(trifluoromethyl)pyridin-3-yl)-1H-pyrazol-4-yl)methyl)-2-(4-fluorophenylsulfonyl)-1-methylcyclopentanecarboxamide (Enantiomer 1)]
 | 34.6 | O=C(NCc1cn(-c2ccc(C(F)(F)F)cc2)nc1C(F)F)[C@@H]1CC[C@@H]1S(=O)(=O)c1ccc(F)cc1 [Example 1, (1S,2S)-N-((3-(difluoromethyl)-1-(4-(trifluoromethyl)phenyl)-1H-pyrazol-4-yl)methyl)-2-(4-fluorophenylsulfonyl) cyclobutanecarboxamide]
23.9 | 23.9 | CC1(C(=O)NCc2cn(-c3ccc(C(F)(F)F)cc3)nc2Cl)CCCC1S(=O)(=O)c1ccc(F)cc1 (single isomer, unassigned; enantiomer 2) [Example 37, N-((3-chloro-1-(4-(trifluoromethyl)phenyl)-1H-pyrazol-4-yl)methyl)-2-(4-fluorophenylsulfonyl)-1-methylcyclopentanecarboxamide (Enantiomer 2)]
8.79 | 8.79 | CC1(C(=O)NCc2cn(-c3ccc(C(F)(F)F)cc3)nc2Cl)CCCC1S(=O)(=O)c1ccc(F)cc1 (single isomer, unassigned; enantiomer 1) [Example 5, N-((3-chloro-1-(4-(trifluoromethyl)phenyl)-1H-pyrazol-4-yl)methyl)-2-(4-fluorophenylsulfonyl)-1-methylcyclopentanecarboxamide (Enantiomer 1)]
7.88 | 7.88 | O=C(Cc1cn(-c2cnc(C(F)(F)F)nc2)nc1C(F)(F)F)N[C@@H]1CC[C@@H]1S(=O)(=O)c1ccc(F)cc1 [Example 3, N-((1R,2S)-2-(4-fluorophenylsulfonyl)cyclobutyl)-2-(3-(trifluoromethyl)-1-(2-(trifluoromethyl)pyrimidin-5-yl)-1H-pyrazol-4-yl)acetamide]
